Laboratory results: patent US7122360B1, “Polypeptides, polynucleotides and uses thereof” (University of Dundee, priority 1998, dated 2006)
“Also recorded” adds a separate entry of the source.

What was measured:
[1] = system: MSK1; assay: LPS-induced activation of MSK1 in RAW 264 macrophages; assay type: cell-based, mouse; conditions: for LPS-stimulated phosphorylation of MSK1: 50 μM PD 98059 or 10 (M SB203580), FIG. 15; for LPS-induced activation of MSK1: LPS 100 ng/ml 1 h, 10 μM UO 126, 10 μM SB 203580, 5 TM Ro 318220
Procedure: (§1) FIG. 15. […] After cell lysis aliquots were assayed for either MSK1 (A), MAPKAP-K1 (B), MAPKAP-K2 (C) after their immunoprecipitation from the lysates or immunoblotted for phosphorylation of CREB and ATF1 (D).
FIG. 18. Effect of inhibitors on the LPS-induced activation of protein kinases in RAW 264 macrophages. Macrophages were incubated for 1 h in the presence or absence 10 μM UO 126 (U) and/or 10 μM SB 203580 (SB), or 5 TM Ro 318220 (Ro), then stimulated for 1 h with or without 100 ng/ml LPS in the continued presence or absence of the inhibitors. MSK1(A), MSK2 (B), MAPKAP-KI (C) and MAPKAP-K2 (D) were then assayed after immunoprecipitation from the lysates.
(§2) Cell culture and stimulation. RAW 264 macrophages were maintained in a 95% air/5% CO2 atmosphere in Dulbecco's modified Eagle's medium (DMEM) plus 10% (v/v) heat-inactivated foetal calf serum, 100 U/ml penicillin, […] streptomycin. The day before stimulation, the macrophages were plated at a density of 2×10^6 cells per 6 cm plate and 2 h before stimulation, the medium removed and replaced with 2 ml of DMEM. Where indicated, […] (10 TM) and/or PD 98059 (50 Tm), or U0126 (10 TM) or Ro 318220 (5 TM), were added 1 h before stimulation.
Cell lysis. After stimulation, the medium was aspirated and the cells were solubilized in 0.2 ml of ice cold lysis buffer (50 mM Tris-acetate pH 7.0, 1 mM EDTA, 1 mM EGTA, 1% (w/v) Triton X-100, 1 mM sodium orthovanadate, 10 mM sodium glycerophosphate, 50 mM NaF, 5 mM sodium pyrophosphate, 0.27 M sucrose, 2 TM microcystin-LR, 1 mM benzamidine, 0.1% (v/v) 2-mercaptoethanol and “complete” proteinase inhibitor cocktail—one tablet per 50 ml). The samples were then snap frozen in liquid nitrogen and stored in aliquots at −80° C. until analysis. Protein concentrations were determined according to [7].

[2] = system: COX-2 mRNA; assay: COX-2 gene transcription in RAW 264 macrophages, RT-PCR; assay type: cell-based, mouse; conditions: LPS 3 h, PD 98059 (50 TM), SB 203580 (10 TM), Ro 318220 (5 TM)
Procedure: (§3) FIG. 21. Effect of PD 98059 and SB 203580 on gene transcription in RAW 264 macrophages. (A) Cells were stimulated for the times indicated with LPS (100 ng/ml). Total RNA was extracted at each time point and mRNA encoding IL-1, COX-2 and HRPT was determined using the reverse transcriptase polymerase chain reaction (Section 2.6). (B) As in A, except that the macrophages were incubated for 1 h in the presence or absence of PD 98059 (50 TM) and/or SB 203580 (10 TM), or Ro 318220 (5 TM), then stimulated for 3 h in the absence or presence of LPS, and in the continued presence or absence of the inhibitors. RTPCR was performed using oligonucleotides encoding fragments of IL-1, COX-2 and HPRT.
as §2
(§4) Reverse transcripts polymerase chain reactions. Total RNA was prepared from LPS-stimulated or control RAW 264 cells using the Rneasy Mini Kit according to the manufacturer's protocol. Total RNA was measured and 100 ng was reverse transcribed using Promega AMV reverse transcriptase (5 U/ml) with the oligonucleotides […] and […] TGA (coding for the IL-1 gene) and […] and […] (coding for the COX-2 gene). Conditions for PCR amplification of the resulting first-stand DNA template were 94° C. denaturing for 30 sec, 60° C. annealing for 1 min, 68° C. extension for 1 min, 30 cycles using thermostable Tf1 DNA polymerase (SU/ml), and 1 mM MgSO4.

[3] = system: IL-1 mRNA; assay: IL-1 gene transcription in RAW 264 macrophages, RT-PCR; assay type: cell-based, mouse; conditions: LPS 3 h, PD 98059 (50 TM), SB 203580 (10 TM), Ro 318220 (5 TM)
Procedure: as §3, §2, §4

[4] = system: CREB and ATF1; assay: CREB and ATF1 phosphorylation in RAW 264 macrophages, immunoblot; assay type: cell-based, mouse; conditions: for LPS-induced phosphorylation of CREB and ATF1: LPS 100 ng/ml 1 h
Procedure: as §1
FIG. 19. […] (A) Macrophages were stimulated for the times indicated with LPS (100 ng/ml). After cell lysis, aliquots of the lysate (30 Tg protein) were denatured in SDS, electrophoresed on a 10% polyacrylamide gel, transferred to a nitrocellulose membrane, and immunoblotted with a phospho-CREB antibody. The positions of the molecular mass markers glycogen phosphorylase (97 kDa), bovine serum albumin (66 kDa), ovalbumin (43 kDa) and carbonic anhydrase (30 kDa) are indicated. […] (B) As in A, except that the macrophages were incubated for 1 h in the presence or absence of 50 TM PD 98059 and/or 10 TM SB 203580 (SB), or 5 TM Ro 318220 (Ro), then stimulated for 1 h in the absence or presence of 100 ng/ml LPS and in the continued presence or absence of the inhibitors.
FIG. 22. […] (A) Macrophages were stimulated for 1 h with LPS (100 ng/ml) or for 15 min with forskolin (F) (20 TM) plus IBMX (10 TM). After cell lysis, aliquots of the lysate (30 Tg protein) were immunoblotted with a phospho-specific CREB antibody (see legend to FIG. 19 for details and molecular mass markers). (B) Macrophages were stimulated for 3 h with LPS (100 ng/ml), or forskolin (20 TM) plus IBMX (10 TM), and immunoblotting performed with a specific COX-2 antibody (materials & methods section). The marker proteins are as in FIG. 19.
as §2
Immunoblotting. For immunoblotting of CREB, nuclear cell extracts were prepared as described and immunoblotting performed using a phospho-specific antibody recognising CREB phosphorylated on Ser 133 and ATF1 phosphorylated on Ser 63. For immunoblotting of COX-2, cell lysate (30 Tg protein) was denatured in SDS, electrophoresed on 10% polyacrylamide gel, transferred to a nitrocellulose membrane, and immunoblotted with anti-COX-2 antibody (1.0 mg/ml). Detection of phosphorylated CREB and ATF1 and COX-2 was performed using the enhanced chemiluminescence reagent (ECL).

[5] = system: CREB and ATF1; assay: TNF induced CREB and ATF1 phosphorylation in HeLa cells; assay type: cell-based; conditions: for TNF-induced phosphorylation of CREB after 15 min / TNF-induced phosphorylation of CREB and ATF1 after 5 min: 50 μM PD 98059, 10 μM SB 203580
Procedure: FIG. 12. […] The position of CREB and ATF1 on the blots is indicated. The time of exposure (exp) of the blots before development is indicated.
Immunoblotting for phosphorylated CREB and ATF1. Cell extracts were prepared and immunoblotting of these carried out as described (Tan et al., 1996) using a phosphospecific antibody recognizing CREB phosphorylated on Ser 133 and ATF1 phosphorylated on Ser63 purchased from UBI (Lake Placid, USA). Detection of phosphorylated CREB and ATF1 proteins was performed using the enhanced chemiluminescence reagent (Amersham).

[6] = 50 TM PD 98059, 10 TM SB 203580, 5 TM Ro 318220

For `COc1cccc(-c2cc(=O)c3ccccc3o2)c1N` [PD 98059], the “LPS-stimulated phosphorylation of MSK1” value [1] was “appear to inhibit”, the “LPS induction of COX-2 mRNA” value [2] was “partially suppressed” and the “LPS induction of IL-1 mRNA” value [3] was “partially inhibited”. For the same compound, the “LPS-induced phosphorylation of CREB and ATF1” value (“LPS-induced phosphorylation” for short) [4, 6] was “appear to inhibit; also recorded: partially inhibited”, the “TNF-induced phosphorylation of CREB after 15 min” value [5] was “slightly suppressed” and the “TNF-induced phosphorylation of CREB and ATF1 after 5 min” value [5] was “unaffected”.
With `C[S+]([O-])c1ccc(-c2nc(-c3ccncc3)c(-c3ccc(F)cc3)[nH]2)cc1` (centres unmarked) [SB 203580] the “LPS-stimulated phosphorylation of MSK1” value [1] was “appear to inhibit”, the “LPS-induced activation of MSK1” value [1] was “only inhibited partially” and the “LPS induction of COX-2 mRNA” value [2] was “partially suppressed”. For the same compound, the “LPS induction of IL-1 mRNA” value [3] was “partially inhibited”, the “LPS-induced phosphorylation” value [4, 6] was “partially inhibited” and the “LPS-induced phosphorylation” value ([4]; 50 TM PD 98059, 10 TM SB 203580, 5 TM Ro 318220, listed as SB203580) was “appear to inhibit”. The “TNF-induced phosphorylation of CREB after 15 min” value [5] was “partially suppressed” and the “TNF-induced phosphorylation of CREB and ATF1 after 5 min” value [5] was “prevented”.
`Cn1cc(C2=C(c3cn(CCCSC(=N)N)c4ccccc34)C(=O)NC2=O)c2ccccc21` [Ro 318220] was tested, and the “LPS-induced activation of MSK1” value [1] was “does not affect”, the “LPS induction of COX-2 mRNA” value [2] was “suppresses” and the “LPS induction of IL-1 mRNA” value [3] was “suppresses”. The “LPS-induced phosphorylation” value [4, 6] was “completely prevents”, the “forskolin-triggered phosphorylation of CREB and ATF-1, effect of inhibitors” value ([4]; data not shown) was “not suppressed” and the “TNF-induced CREB phosphorylation” value ([5]; 5 μM Ro 318220) was “completely blocked”.
